Results: publication PMC10577883, “Design and Optimization of Novel Competitive, Non-peptidic, SARS-CoV-2 M^pro Inhibitors” (ACS Medicinal Chemistry Letters, 2023)
Values joined by “and” are separate entries in the source; they are usually repeats but may differ in a detail not shown here. Equal values may be shown once.

How the values were obtained:
SARS-CoV-2 Mpro (3CLpro) = SARS-CoV-2 Mpro (3CLpro) (Severe acute respiratory syndrome coronavirus 2, UniProt P0DTD1); assay: SARS-CoV-2 recombinant protease enzymatic assay (FRET); type: biochemical; conditions: for IC50: recombinant Mpro, FRET peptide substrate
[1] = test system: SARS-CoV-2-Nluc reporter virus; assay: microbe, parasite or virus in culture; type: cell-based; conditions: for EC50: Severe acute respiratory syndrome coronavirus 2, VeroE6/TMPRSS2 cells, parentheses denote 95% confidence intervals
in vitro = conditions: chlorocebus sabaeus

Compound | IC50 (SARS-CoV-2 Mpro (3CLpro)) | EC50 [1] [nM] | CC50 (in vitro) [nM] | EC50 range in words [1] | IC50 range in words (SARS-CoV-2 Mpro (3CLpro))
O=c1[nH]cccc1-c1cn(-c2cc(Cl)cc(OCc3scnc3C(F)(F)F)c2)c(=O)n(-c2cccnc2)c1=O [Compound 37] | 43 nM | 2400 | > 100000 |  | 
O=c1[nH]cccc1-c1cn(-c2cc(Cl)cc(Cl)c2)c(=O)n(-c2cccnc2)c1=O [Compound 6] | 276 nM and 280 nM | 500 | > 100000 | sub-micromolar | 
Cc1scnc1COc1cc(Cl)cc(-n2cc(-c3ccc[nH]c3=O)c(=O)n(-c3cccnc3)c2=O)c1 [Compound 39] | 17 nM | 5000 | > 100000 |  | 
Cn1cc(COc2cc(Cl)cc(-n3cc(-c4ccc[nH]c4=O)c(=O)n(-c4cccnc4)c3=O)c2)c(C(F)(F)F)n1 [Compound 44] | 5.6 nM | 3300 | > 100000 |  | single-digit nanomolar range
O=c1[nH]cccc1-c1cn(-c2cc(Cl)cc(OCc3nc4ccccc4n3C(F)F)c2)c(=O)n(-c2cccnc2)c1=O [Compound 38] | 21 nM | 1890 | > 100000 |  | 
O=c1[nH]cccc1-c1cn(-c2cc(Cl)cc(OCC3CC3)c2)c(=O)n(-c2cccnc2)c1=O [Compound 35] | 100 nM | 820 | > 100000 |  | 
O=c1ccc(-c2cn(-c3cc(Cl)cc(Cl)c3)c(=O)n(-c3cccnc3)c2=O)c[nH]1 [Compound 7] | 1580 nM and 1590 nM | > 20000 | > 100000 |  | 
Cn1c([N+](=O)[O-])cnc1COc1cc(Cl)cc(-n2cc(-c3ccc[nH]c3=O)c(=O)n(-c3cccnc3)c2=O)c1 [Compound 42] | 12 nM | 19300 | > 100000 |  | 
